In patent US9360486B2, “Allergen fragments” (Biomay AG, priority 2007, dated 2016):

System: Amb a 1-specific T cell lines (TCL)
Test: T cell epitope mapping of Amb a 1.3: proliferation (3H-thymidine uptake) of TCL stimulated with synthetic peptides
Assay type: cell-based, human
Details: for No. positive patients SI > 3 / No. positive patients SI > 5 / % (positive patients SI > 3) / % (positive patients SI > 5): TCL from 48 ragweed pollen-allergic patients, peptide 5 μg/ml; for No. positive patients SI > 3 / No. positive patients SI > 5: 3H-thymidine uptake after 48 hrs; for No. positive patients SI > 3 / % (positive patients SI > 3): stimulation index > 3; for No. positive patients SI > 5 / % (positive patients SI > 5): stimulation index > 5; for T cell activating region recognized by % of patients: classes of prevalence referring to SI>5, 48 TCL
Procedure, shortened: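 Amb a 1-specific TCL from ragweed-allergic patients, raised with ragweed extract or rAmb a 1.3, stimulated 48 h with 121 overlapping 12-mer peptides plus one C-terminal 13-mer (9-residue overlap) at 5 μg/ml. Proliferation by 3H-thymidine uptake; SI against the mean cpm of the ten least stimulating peptides, epitope when SI ≥3.0.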

Sequence | No. positive patients SI > 3 | No. positive patients SI > 5 | % (positive patients SI > 3) [%] | % (positive patients SI > 5) [%] | reactivity with T cells isolated from allergic individuals | T cell activating region recognized by % of patients
CSLSKSFDGLVD (Amb a 1 fragment) [Peptide 63] | 2 | 2 | 4.2 | 4.2 |  | 
PVQSAGMIPAEP (Amb a 1 fragment) [Peptide 114] | 8 | 5 | 16.7 | 10.4 | reactivity with T cells | 
WENNRQALADCA (Amb a 1 fragment) [Peptide 13] | 2 | 0 | 4.2 | 0.0 |  | 
MVINLNQELVVN (Amb a 1 fragment) [Peptide 34] | 2 | 2 | 4.2 | 4.2 |  | 
RSLQACEAYNII (Amb a 1 fragment) [Peptide 6] | 1 | 0 | 2.1 | 0.0 |  | 
EGTLRFAAAQNRPLW (Amb a 1 fragment) [Peptide 27-28] |  |  |  |  | reactivity with T cells | recognized by 22.9%
PTILCQGNRFLA (Amb a 1 fragment) [Peptide 94] | 11 | 9 | 22.9 | 18.8 | reactivity with T cells | recognized by 18.8%
GVGEILPSVNET (Amb a 1 fragment) [Peptide 2] | 2 | 1 | 4.2 | 2.1 |  | 
QNRPLWIIFKND (Amb a 1 fragment) [Peptide 30] | 11 | 9 | 22.9 | 18.8 | reactivity with T cells | 
SAGVLSCRPGAPC (Amb a 1 fragment) [Peptide 121] | 6 | 2 | 12.5 | 4.2 | reactivity with T cells | 
KSNDGPPILRQA (Amb a 1 fragment) [Peptide 53] | 5 | 0 | 10.4 | 0.0 | reactivity with T cells | 
GDVYTVTSNLDD (Amb a 1 fragment) [Peptide 21] | 2 | 1 | 4.2 | 2.1 |  | 
PDDQIKKNVLAR (Amb a 1 fragment) [Peptide 98] | 13 | 8 | 27.1 | 16.7 | reactivity with T cells | 
RMPRCRFGFFQV (Amb a 1 fragment) [Peptide 84] | 3 | 1 | 6.3 | 2.1 |  | 
VNNNYDRWGTYAIGG (Amb a 1 fragment) [Peptide 88-89] |  |  |  |  | reactivity with T cells | recognized by 12.5%
GNRFLAPDDQIK (Amb a 1 fragment) [Peptide 96] | 5 | 4 | 10.4 | 8.3 | reactivity with T cells | 
SKSFDGLVDVTL (Amb a 1 fragment) [Peptide 64] | 3 | 1 | 6.3 | 2.1 |  | 

Sequence | No. positive patients SI > 3 | No. positive patients SI > 5 | % (positive patients SI > 3) [%] | % (positive patients SI > 5) [%] | reactivity with T cells isolated from allergic individuals | T cell activating region recognized by % of patients
VDQRMPRCRFGF (Amb a 1 fragment) [Peptide 83] | 10 | 8 | 20.8 | 16.7 | reactivity with T cells | recognized by 16.7%
NVAGSSQIWIDHCSLSKS (Amb a 1 fragment) [Peptide 59-61] |  |  |  |  | reactivity with T cells | recognized by 58.3%
AAAQNRPLWIIF (Amb a 1 fragment) [Peptide 29] | 4 | 3 | 8.3 | 6.3 |  | 
SKAILLGADDTH (Amb a 1 fragment) [Peptide 73] | 4 | 2 | 8.3 | 4.2 |  | 
PILRQASDGDTI (Amb a 1 fragment) [Peptide 55] | 3 | 1 | 6.3 | 2.1 |  | 
DKDLLENGAIFVTSGSDPVLTPVQ (Amb a 1 fragment) [Peptide 107-111] |  |  |  |  | reactivity with T cells | 
IIHNINIHDVKV (Amb a 1 fragment) [Peptide 47] | 14 | 10 | 29.2 | 20.8 | reactivity with T cells | 
DGPPILRQASDG (Amb a 1 fragment) [Peptide 54] | 4 | 2 | 8.3 | 4.2 |  | 
WRGKADWENNRQ (Amb a 1 fragment) [Peptide 11] | 4 | 2 | 8.3 | 4.2 |  | 
TQQSKAILLGAD (Amb a 1 fragment) [Peptide 72] | 4 | 2 | 8.3 | 4.2 |  | 
SAEGVGEILPSV (Amb a 1 fragment) [Peptide 1] | 2 | 0 | 4.2 | 0.0 |  | 
GADDTHVQDKGM (Amb a 1 fragment) [Peptide 75] | 1 | 1 | 2.1 | 2.1 |  | 
GSSQIWIDHCSL (Amb a 1 fragment) [Peptide 60] | 30 | 28 | 62.5 | 58.3 | reactivity with T cells | 
VKVEIINGGLTL (Amb a 1 fragment) [Peptide 41] | 5 | 1 | 10.4 | 2.1 | reactivity with T cells | 
EIINGGLTLMNV (Amb a 1 fragment) [Peptide 42] | 11 | 5 | 22.9 | 10.4 | reactivity with T cells | recognized by 10.4%
YTVTSNLDDDVA (Amb a 1 fragment) [Peptide 22] | 4 | 4 | 8.3 | 8.3 |  | 
